These results are taken from patent publication US20250073146A1, “MIXED SURFACTANT FOR PREPARING TRANSPARENT MICROEMULSION AND FINE NANOEMULSION, AND COSMETIC COMPOSITION PREPARED USING THE SAME” (BIOBEAUTECH Co., Ltd., priority 2023, published 2025).

This data set is described as follows: HLB of surfactant. It counts as physicochemical.

Turning to polyglyceryl-10 oleate, the “average HLB” value is 12.5.
Consider sucrose distearate, for which the “average HLB” value was found to be 6.3.
